Laboratory results reported in patent publication US20160206620A1, “PURIN DERIVATIVES FOR USE IN THE TREATMENT OF FAB-RELATED DISEASES” (Boehringer Ingelheim International GmbH, priority 2008, published 2016).

Key:
[1] = Pharmacokinetics of BI 1356 in patients with type 2 diabetes, multiple oral doses once daily for 12 days; conditions: for RA, AUC (accumulation ratio), gMean (gCV) / RA, Cmax (accumulation ratio), gMean (gCV) / feτ, ss, gMean (gCV): steady state (Day 12); for fe0-24, gMean (gCV): type 2 diabetes patients
ob/ob mice [2] = assay: Wound healing of excisional wounds in ob/ob mice (histology, Ly6G staining); format: in vivo, mouse; conditions: 3 mg/kg daily
Source text: The ob/ob mice have been used and are accepted as experimental model for diabetes-impaired wound healing. These animals suffer from severe diabetes and obesity syndromes which show similar characteristics like in the human situation (e.g. obesity, insulin resistance). Insulin and diet reduce hyperglycemia in obese mice just they as they do in obese and diabetic subjects, but neither improves healing in these animals as has been shown recently.
(§1) Female C57BI/6J-ob/ob mice (Charles River, Sulzfeld) in the age of 8-9 weeks were used. 6 excisional wounds (including the panniculus carnosus) were placed on the back of each animal under ketamin anaesthesia. The animals were treated daily with 3 mg/kg of BI 1356 or methycellulose (1-2%). On day 10 an oral glucose tolerance test (2 g/kg) was performed (0, 30, 60, 90, 120 and 180 min) at the tail tip. Animals were killed under isofluran anaesthesia by cervical dislocation and wounds were excised for histological analysis. Serum was further taken for the detection of DPP-4 activity. Histology was performed in 6-8 μm paraffin embedded and paraformaldehyd fixed cuttings with eosin-hematoxylin staining. Moreover, polymorphonuclear neutrophils (PMN) were identified by immunohistological staining of Ly6G as a robust readout for wound inflammation. (Ref. S. Frank, Methods in Molecular Medicine 2003, Kämpfer, Diabetes 2006)

[3] = 2 h postprandial blood glucose excursions in patients with type 2 diabetes; format: in vivo, human; conditions: already on Day 1, doses ≧2.5 mg
Source text: […]. […] […]. […] […].

clinical = conditions: human, urine
[4] = Safety and tolerability in people with type 2 diabetes
ob/ob mice [5] = assay: Oral glucose tolerance test in ob/ob mice; format: in vivo, mouse; conditions: 3 mg/kg daily, OGTT 2 g/kg on day 10
Method: as §1

SMILES: CC#CCn1c(N2CCC[C@@H](N)C2)nc2c1c(=O)n(Cc1nc(C)c3ccccc3n1)c(=O)n2C [BI 1356, 1-[(4-methyl-quinazolin-2-yl)methyl]-3-methyl-7-(2-butyn-1-yl)-8-(3-(R)-amino-piperidin-1-yl)-xanthine]
- RA, AUC (accumulation ratio), gMean (gCV) ([1]; 1 mg oral once daily): 2.03 (30.7)
- RA, Cmax (accumulation ratio), gMean (gCV) ([1]; 1 mg oral once daily): 1.44 (25.6)
- feτ, ss, gMean (gCV) ([1]; 1 mg oral once daily): 3.34 (38.3) %
- RA, AUC (accumulation ratio), gMean (gCV) ([1]; 2.5 mg oral once daily): 1.37 (8.2)
- RA, Cmax (accumulation ratio), gMean (gCV) ([1]; 2.5 mg oral once daily): 1.25 (10.6)
- feτ, ss, gMean (gCV) ([1]; 2.5 mg oral once daily): 3.06 (45.1) %
- fe0-24, gMean (gCV) ([1]; 2.5 mg oral once daily): 0.139 (51.2) %
- RA, AUC (accumulation ratio), gMean (gCV) ([1]; 5 mg oral once daily): 1.33 (15.0)
- RA, Cmax (accumulation ratio), gMean (gCV) ([1]; 5 mg oral once daily): 1.33 (30.0)
- feτ, ss, gMean (gCV) ([1]; 5 mg oral once daily): 6.27 (42.2) %
- fe0-24, gMean (gCV) ([1]; 5 mg oral once daily): 0.453 (125)^ %
- RA, AUC (accumulation ratio), gMean (gCV) ([1]; 10 mg oral once daily): 1.18 (23.4)
- RA, Cmax (accumulation ratio), gMean (gCV) ([1]; 10 mg oral once daily): 1.40 (47.7)
- feτ, ss, gMean (gCV) ([1]; 10 mg oral once daily): 3.22 (34.2) %
- fe0-24, gMean (gCV) ([1]; 10 mg oral once daily): 0.919 (115)^ %
- mean accumulation ratio RA,AUC ([1]; doses above 1 mg, once daily oral): ≤ 1.4
- excreted via the kidney ([1]; therapeutic oral dose levels): < 7 % of the administered oral dose
- route of excretion ([1]; therapeutic oral dose levels): primarily excreted unchanged via the bile
- PMN accumulation in wounds (Ly6G immunohistology) (ob/ob mice [2]): overall reduction of PMN accumulation
- wound morphology and wound re-epithelialization (histology) (ob/ob mice [2]): profound improvement of wound morphology and wound re-epithelialization
- distance between wound margin epithelia (wound size) (ob/ob mice [2]; treated for 12 day, control 2.02±1.07 mm): 0.74±0.90 mm
- decrease in 2 h postprandial blood glucose excursions [3]: ≥ 80%
- CL renal (clinical; oral, 5 mg): ~70 mL/min
- CL renal (clinical; po): 14 to 70 mL/min
- safety and tolerability [4]: placebo-like safety and tolerability
- reduction of glucose excursion following oral glucose tolerance assay (absolute AUC) (ob/ob mice [5]): 25%
